Source: patent US20220106282A1, “TREATMENT FOR BREAST CANCER, INCLUDING TRIPLE-NEGATIVE BREAST CANCER” (priority 2018, published 2022)
Values joined by “and” are separate entries in the source; they are usually repeats but may differ in a detail not shown here. Identical values can stand only once. Marks after values point to notes of the source that are not given here.

Legend:
[1] = system: ovariectomized rats; test: Biochemical parameters of ovariectomized rats; format: in vivo, rat; details: ovariectomised rats, EE 0.1 mg/kg bw
[2] = system: MCF-7 breast cancer cells; details: RU 2619457; cited from earlier work
[3] = system: uterus; details: literature / prior art; cited from earlier work
[4] = first class: high solubility, high permeability, second class: low solubility; cited from earlier work
[5] = system: breast tumors in female FVB mice transgenic for HER-2/neu; test: Antitumor activity on model of multiple breast tumors in HER-2/neu transgenic mice; details: for Average total volume of tumors in mice (M) / Average volume of tumors present at the beginning of the experiment (M): i.g. daily
Procedure: Two adenocarcinoma subtypes can be differentiated, in particular ER+, PR−, and ER−, PR− [2].
The study was carried out in female FVB mice transgenic for HER-2/neu by conventional category; the strain was obtained from the mouse bank Charles River Laboratories (Italy). At the beginning of the study the animals were 21-41 weeks old having weight of 25 to 30 g.
The study medicament was administered i.g. using a metal atraumatic gavage (with the procedure corresponds to the oral route of administration in clinical settings). The medicament was administered in a single daily dose (20 mg/kg of body weight) and 5-fold daily dose of 100 mg/kg of body weight. Ex tempore solutions of the medicament for administration were prepared in olive oil (refined olive oil supplemented with unrefined extra virgin olive oil available under Global Village “Clasico” trademark, lot L:183351116, expiry date 26 Apr. 2020, BAIEO, Spain). The administered volume was 0.1 ml per 10 g of a mouse body weight (0.2 ml of a ready-to-use formulation for a mouse of 20 g). The medicament administration was started 24 hours after the randomization. The duration of the administration course was 27-28 days.
This dose corresponds to a human daily dose of 20 mg/kg.
The control groups were given the olive oil (placebo).
The evaluation criteria included the clinical observation data, animals body weights, time of death (if applicable), tumor growth over time, pathomorphological examination data (verification of a neoplasm during autopsy, assessment of toxic effects by macroscopic presentation of changes in the internal organs).
The animals body weights were recorded before the first administration of the medicaments and then twice per week using a verified high-speed electronic laboratory balance Ohaus Scout Pro (USA) with a maximum load of 2000 g and a measurement step of 0.1 g.
Macroscopically detectable tumor nodes were measured in animals once per week during weighing process. Two linear dimensions including the largest one and the largest rectangular to the former were recorded for each of the nodes. The largest dimension was taken as a length (a) and the second dimension as a width (b) of the tumor nodes. A tumor volume was calculated by the expression as follows: […]
The efficacy of the therapy was assessed by recording a change in the average tumor volume, tumor growth inhibition (TGI), and the average total tumor volumes and its change over time in each of the mice.
The percent of tumor growth inhibition was calculated by the expression as follows:
TGI=(Vctrl−Vexp)/Vctrl×100(%),
where Vctrl is an average tumor volume in a control group, and Vexp is an average tumor volume in an experimental group.
The primary data from individual forms were transferred to Microsoft Excel 2007 books. The group arithmetic average (M) and standard deviation (m) were calculated for all quantitative data. The statistical analysis was performed using the statistical software GraphPad Prism 6.0. The differences between the groups were assessed using ANOVA regression analysis and the Fisher's exact test.

[6] = system: uterine body; test: Hormonal effect: uterine body weight in tumor-bearing mice; format: in vivo, mouse; details: Tamoxifen-1 group, 4 mg/kg; estrous phase E
[7] = as above; format: in vivo, mouse; details: Tamoxifen-1 group, 4 mg/kg
[8] = system: uterine body; test: as above; format: in vivo, mouse; details: Tamoxifen-1 group, 4 mg/kg
Procedure: To estimate the hormonal effect of the medicament, the weight of the uterine body without uterine horns was measured (Table 9).

[9] = Tamoxifen group, dose 1.4 mg/kg, Day 6
[10] = Tamoxifen group, dose 1.4 mg/kg, Day 13
[11] = Tamoxifen group, dose 1.4 mg/kg, Day 20
[12] = Tamoxifen group, dose 1.4 mg/kg, Day 27
[13] = Tamoxifen group, dose 1.4 mg/kg, Day −1
[14] = Tamoxifen group, dose 1.4 mg/kg, Day 27 vs Day −1
[15] = Tamoxifen-1 group, 4 mg/kg i.g. daily, end of study

`C#C[C@]1(O)CC[C@H]2[C@@H]3CCc4cc(O)ccc4[C@H]3CC[C@@]21C` [EE, 17α-ethinyl estradiol, reference compound] gave a Uterus weight [1] of 164 ± 11 mg/100 g bw.

In the case of `C[C@H]1Oc2cc(OS(N)(=O)=O)ccc2C2=C1C1=CCC[C@H](OS(N)(=O)=O)[C@@]1(C)CC2` [3,17αβ-disulfamoyloxy-7β-methyl-D-homo-6-oxa-estra-1,3,5(10), 8,14-pentaen], the “Growth of MCF-7 breast cancer cells” value [2] is given as “inhibitor of the growth”.

For `C[C@]12CC[C@@H]3c4ccc(OS(N)(=O)=O)cc4CC[C@H]3[C@@H]1CCC2=O` [estrone sulfamate], the Uterotropic activity [3] is given as “strong uterotropic activity”.

For `N#Cc1ccc(C(c2ccc(C#N)cc2)n2cncn2)cc1` [letrozole], the BCS class [4] is listed as “first class”.

For `CC/C(=C(\c1ccccc1)c1ccc(OCCN(C)C)cc1)c1ccccc1` [Tamoxifen, reference compound], the “Average total volume of tumors in mice (M)” value (“Average total volume” for short) [5, 9] was 0.76 cm^3, the “Average volume of tumors present at the beginning of the experiment (M)” value (shortened to “Average volume of tumors present”) [5, 9] was 0.26 cm^3 and the “Average total volume” value [5, 10] was 0.88 cm^3. For the same compound, the “Average volume of tumors present” value [5, 10] was 0.3 cm^3, the “Average total volume” value [5, 11] was 1.38 cm^3 and the “Average volume of tumors present” value [5, 11] was 0.47 cm^3. The “Average total volume” value [5, 12] was 1.68 cm^3, the “Average volume of tumors present” value [5, 12] was 0.58* cm^3 and the “Average total volume” value [5, 13] was 0.66 cm^3. For the same compound, the “Average volume of tumors present” value [5, 13] was 0.23 cm^3, the “TGI (average total tumor volume)” value [5, 9] was −12% and the “TGI (average tumor volume)” value [5, 9] was 13%. The “TGI (average total tumor volume)” value [5, 10] was −32%, the “TGI (average tumor volume)” value [5, 10] was 46% and the “TGI (average total tumor volume)” value [5, 11] was 9%. The “TGI (average tumor volume)” value [5, 11] was 29%, the “TGI (average total tumor volume)” value [5, 12] was 18% and the “% of change from baseline (average total tumor volume)” value [5, 14] was 155%. The “% of change to the initial value (average tumor volume)” value [5, 14] was 152%, the “TGI (average total tumor volume)” value [5, 13] was −57% and the “TGI (average tumor volume)” value [5, 13] was −28%. For the same compound, the “Average volume of new tumors at the end of the observation period (M)” value ([5]; Tamoxifen-1 group, 4 mg/kg i.g. daily, 4 mg/kg) was 0.16±0.05 cm^3 and 0.16 cm^3, the “Absolute number of new tumors” value [5, 15] was 21 and the “Frequency of tumor stabilizations” value [5, 15] was 10%. The “Average volume of new tumors, % less than that of the control group” value ([5]; Tamoxifen-1 group, end of observation) was 52%, the Uterine body weight [6] was 31 ± 2 mg and the Body weight ([7]; all mice) was 28.2 ± 1.0 g. For the same compound, the Body weight ([7]; estrous phase D) was 30.5 g, the Body weight ([7]; estrous phase E) was 28.0 ± 1.0 g and the Uterine body weight ([8]; all mice) was 32 ± 2 mg. For the same compound, the Uterine body weight ([8]; estrous phase D) was 34 mg.

In the case of `CC(C)(C#N)c1cc(Cn2cncn2)cc(C(C)(C)C#N)c1` [anastrazole], the BCS class [4] is listed as “first class”.
